Test [1] deals with rat spinal cord injury model of overactive bladder. The following applies: cited from earlier work.
The next test deals with human bladder. The conditions noted are these: human volunteers, intravesical administration; cited from earlier work.
Another test deals with rat bladder. The following applies: rats, topical administration; cited from earlier work.
Test [2] relates to bladder function of wild type (WT) and EP1 knockout (EP1KO) mice. The experiment in a line: Cystometry in conscious mice under intravesical instillation of PGE2. The following applies: intravesical instillation of PGE2 (20 μM). In kind it is in vivo, mouse. Here is the method: Animals: Age-matched female EP1 knockout (EP1KO) mice (DBA/1LacJ background) (n=13) and DBA/1LacJ wild type (WT) controls (n=12) were used for the studies. The knockout mice originated from Groton Laboratories, Pfizer Research and Development, the wild type from the Jackson Laboratories, USA. Both strains were delivered through Charles River Laboratories, UK. After arrival, the mice were housed for 6 weeks under identical conditions under a 12 hours light/dark photocycle, food and water were provided ad libitum. The experimental protocol was approved by the Animals Ethics Committee, Lund University.
The knockout and WT mice were randomly divided into 3 groups each. One third received bladder outlet obstruction (BOO) as described below, one third received sham surgery. The remaining mice served as unoperated controls.
At day 5 after the obstruction a polyethylene catheter (PE, ID 0.38 mm, OD 0.61 mm) with a small cuff was inserted in the bladder dome and secured with a purse-string suture (7-0 silk). The obstructing ligature remained in place. The catheter was tunneled subcutaneously, led out on the back of the neck, and surgically secured. Control animals received the bladder catheter 2 days prior to cystometry.
Cystometry: Two days after insertion of the catheter (7 days after creation of the obstruction), the cystometric investigation was performed without any anesthesia or restraint. The mice were placed into a metabolic cage (Gazzada, Buguggiatade, Italy). The bladder catheter was connected to a pressure transducer, which in turn was connected to a Grass® 7E Polygraph recorder. The bladder was continuously filled with saline at room temperature by means of a microinjecton pump (CMA 100, Carnegie Medicine, Solna, Sweden), at a filling speed of 25 μl/min.
The amount of voided urine was measured by means of a fluid collector, connected to a force displacement transducer (FT 03 D; Grass instrument Co., MA, USA). After a stabilization period of 60-80 minutes, in which the bladder was continuously filled, reproducible voiding patterns were achieved and recorded over a period of 30 minutes. The following parameters were measured: Micturition interval (time between 2 voids), baseline pressure (lowest pressure between 2 voids), threshold pressure (pressure immediately before micturition was initiated), micturition pressure (maximum voiding pressure), and micturition volume. Residual urine was emptied manually 3 times at the end of the cystometry and measured. Bladder capacity was calculated as the amount of saline infused into the bladder between 2 voids, plus the average amount of residual urine.
The animals were continuously observed in order to distinguish between moving artifacts and non-voiding bladder contractions. The surface of the collecting-funnel under the grid of the metabolic cage was sprayed with a thin layer of silicone.
Drugs and solutions: PGE2 (Sigma Chemical Company, St. Louis, Mo., USA). PGE2 was dissolved in ethanol, and the stock solution was stored at a concentration of 10^−2 M at −70°. The final dilution of 20 μM was made in NaCl at the day of cystometry. (Normal Krebs solution was composed as following (mM): NaCl 119, KCl 4.6, CaCl2 1.5, MgCl2 1.2, NaHCO3 15, NaH2PO4 1.2, and glucose 11).
Data analysis: All values are reported as the mean±SEM. Statistical significance was determined by Student's t-test and Bonferroni correction as appropriate. P<0.05 was required for statistical significance.

A further test deals with bladder of normal rats. The following applies: cited from earlier work.

Each structure is given as a SMILES string.

For the compound `Cc1cc(Cl)ccc1S(=O)(=O)NC[C@H]1C2CCC(CC2)[C@@H]1/C=C\CCCC(=O)O` [ONO-8711], the bladder overactivity result in test [1] is recorded as “reduction in bladder overactivity”.
On to `CCCCC[C@H](O)/C=C/[C@H]1[C@H](O)CC(=O)[C@@H]1C/C=C\CCCC(=O)O` [PGE2, prostaglandin E2], for which, in the test with human bladder, the bladder capacity entry was “decreased bladder capacity” and the sensations of urgency result is “gave rise to sensations of urgency”. The “bladder activity and reflex micturition” value in the test on rat bladder was “bladder hyperactivity and stimulation of reflex micturition”. Further, in test [2] (EP1 KO control mice), the bladder capacity entry is reported as “no effect”, the “induction of non-voiding contractions” value was “no induction of non-voiding contractions”, the micturition interval entry is “no effect” and the micturition volume entry is “no effect”. Further, in test [2] (WT control mice), the bladder capacity result is “decreased”, the micturition interval result is “decreased”, the micturition volume entry is “decreased” and the non-voiding contractions result was “Frequent non-voiding contractions of high amplitude occurred”.
Take `CC(=O)NNC(=O)N1Cc2ccccc2Oc2ccc(Cl)cc21` [SC-19220]: in the test with bladder of normal rats, the bladder capacity entry is given as “increased bladder capacity”.
